According to patent US20240425502A1, “BICYCLIC HETEROAROMATIC COMPOUNDS AND THEIR USE AS PEST CONTROL AGENTS” (PI INDUSTRIES LTD., priority 2021, published 2024):

Legend:
Type in all cases: in vivo
Bemisia tabaci = Bemisia tabaci leaf dip test (brinjal leaves, whitefly adults); settings: foliar, 72 h after release, dead and moribund combined, compared to untreated control, read-out: percent mortality
Method: The leaf dip method was used for testing, wherein the required quantity of the compound was weighed and dissolved in a tube containing a solvent solution. The tube was put on a vortex at 2000 rpm for 90 min for proper mixing and then the mixture was diluted with a 0.01% Triton-X solution to the desired test concentration. Brinjal leaves were dipped in the compound solution for 10 seconds, shade dried for 20 min and then placed, with the abaxial side of the leaf up, on 4 ml of a 1% agar-agar solution in respective container caps. Known numbers of freshly emerged whitefly adults were collected, using a modified aspirator, and released into a perforated container in which the cap containing the treated leaf was placed. The containers were kept in a plant growth chamber at a temperature of 25° C. and a relative humidity of 70%. Observations on dead, moribund and alive adults were recorded 72 h after the release. Percent mortality was calculated by combining dead and moribund adults and comparing the result to the one of the untreated control. The compounds 32 53 58 79 80 81 82 84 87 88 89 94 95 96 101 102 103 104 105 106 107 108 109 112 113 114 115 116 117 118 119 120 123 124 125 126 127 130 135 138 139 140 144 145 147 150 154 156 158 159 164 167 168 169 170 171 188 189 191 198 199 200 201 202 206 207 208 209 210 213 216 223 224 225 227 228 231 232 233 234 235 236 238 242 243 244 246 and 247 recorded≥70 percent mortality @ 300 PPM.

Myzus persicae = Myzus persicae leaf dip test (capsicum leaves, third instar nymphs); settings: foliar, 72 h after release, dead and moribund combined, compared to untreated control, read-out: percent mortality
Nilaparvata lugens = Nilaparvata lugens seedling dip test (paddy seedlings, third instar nymphs); settings: 72 h after release, dead and moribund combined, compared to untreated control, read-out: percent mortality

Measured: mortality at 300 ppm

O=c1nc2n(Cc3cnc(Cl)nc3)cccc-2c(=O)n1-c1ccc(F)c(Br)c1 [Compound 234, 3-(3-bromo-4-fluorophenyl)-8-((2-chloropyrimidin-5-yl)methyl)pyrido[2,3-d]pyrimidine-2,4(3H,8H)-dione]
≥ 70%: all assays above

O=c1nc2n(Cc3cnc(Cl)nc3)cccc-2c(=O)n1-c1cc(F)cc(F)c1 [Compound 140, 8-((2-chloropyrimidin-5-yl)methyl)-3-(3,5-difluorophenyl)pyrido[2,3-d]pyrimidine-2,4(3H,8H)-dione]
≥ 70%: all assays above

O=c1nc2n(Cc3cnc(Cl)nc3)cccc-2c(=O)n1-c1ccc(Cl)c(F)c1 [Compound 208, 3-(4-chloro-3-fluorophenyl)-8-((2-chloropyrimidin-5-yl)methyl)pyrido[2,3-d]pyrimidine-2,4(3H,8H)-dione]
≥ 70%: all assays above

O=c1nc2n(Cc3cnc(Cl)nc3)cccc-2c(=O)n1-c1ccc(F)cc1F [Compound 207, 8-((2-chloropyrimidin-5-yl)methyl)-3-(2,4-difluorophenyl)pyrido[2,3-d]pyrimidine-2,4(3H,8H)-dione]
≥ 70%: all assays above

O=c1nc2n(Cc3ccc(Cl)nc3)cccc-2c(=O)n1-c1cccc(SC(F)(F)F)c1 [Compound 246, 8-((6-chloropyridin-3-yl)methyl)-3-(3-((trifluoromethyl)thio)phenyl)pyrido[2,3-d]pyrimidine-2,4(3H,8H)-dione]
≥ 70%: all assays above

O=c1nc2n(Cc3cnc(Cl)nc3)cccc-2c(=O)n1-c1cc(F)cc(C(F)(F)F)c1 [Compound 244, 8-((2-chloropyrimidin-5-yl)methyl)-3-(3-fluoro-5-(trifluoromethyl)phenyl)pyrido[2,3-d]pyrimidine-2,4(3H,8H)-dione]
≥ 70%: all assays above

O=c1nc2n(Cc3cnc(Cl)nc3)cccc-2c(=O)n1-c1ccc(OCC(F)(F)F)cc1 [Compound 216, 8-((2-chloropyrimidin-5-yl)methyl)-3-(4-(2,2,2-trifluoroethoxy)phenyl)pyrido[2,3-d]pyrimidine-2,4(3H,8H)-dione]
≥ 70%: all assays above

O=c1c2cccn(Cc3cnc(Cl)nc3)c-2nc(=S)n1-c1ccc(Cl)cc1 [Compound 210, 3-(4-chlorophenyl)-8-((2-chloropyrimidin-5-yl)methyl)-2-thioxo-2,8-dihydropyrido[2,3-d]pyrimidin-4(3H)-one]
≥ 70%: all assays above

O=c1nc2n(Cc3cnc(Cl)nc3)cccc-2c(=O)n1-c1ccc(Cl)cc1 [Compound 82, 3-(4-chlorophenyl)-8-((2-chloropyrimidin-5-yl)methyl)pyrido[2,3-d]pyrimidine-2,4(3H,8H)-dione]
≥ 70%: all assays above

O=c1nc2n(Cc3cnc(Cl)nc3)cccc-2c(=O)n1-c1ccc(F)c(Cl)c1 [Compound 154, 3-(3-chloro-4-fluorophenyl)-8-((2-chloropyrimidin-5-yl)methyl)pyrido[2,3-d]pyrimidine-2,4(3H,8H)-dione]
≥ 70%: all assays above

O=c1nc2n(Cc3cnc(Cl)s3)cccc-2c(=O)n1-c1cccc(C(F)(F)F)c1 [Compound 88, 8-((2-chlorothiazol-5-yl)methyl)-3-(3-(trifluoromethyl)phenyl)pyrido[2,3-d]pyrimidine-2,4(3H,8H)-dione]
≥ 70%: all assays above

O=c1nc2n(Cc3cnc(Cl)s3)cccc-2c(=O)n1-c1ccc(F)c(C(F)(F)F)c1 [Compound 242, 8-((2-chlorothiazol-5-yl)methyl)-3-(4-fluoro-3-(trifluoromethyl)phenyl)pyrido[2,3-d]pyrimidine-2,4(3H,8H)-dione]
≥ 70%: all assays above

O=c1nc2n(Cc3cnc(Cl)s3)cccc-2c(=O)n1-c1cccc(OC(F)(F)F)c1 [Compound 150, 8-((2-chlorothiazol-5-yl)methyl)-3-(3-(trifluoromethoxy)phenyl)pyrido[2,3-d]pyrimidine-2,4(3H,8H)-dione]
≥ 70%: all assays above
